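Grown in 96-well plates, cells were treated for 48 hours with each compound at five concentrations. Insufficient inhibition: endpoint recorded as highest concentration tested. TGI marks complete inhibition of growth.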
system: SF-268 CNS; assay: NCI anticancer screen, dose series, 48 h

| Compound | TGI |
| --- | --- |
| COc1ccc(C2OC(c3ccncc3)=NN2C)cc1OC (configuration not stated) | > 100 µM |
| COc1c(C(C)C)cc2c3c1OC(=O)[C@@]31CCCC(C)(C)C1CC2 (some centres not stated) | > 100 µM |
| COc1ccc(N2C(=O)CSC2c2c[nH]c3ccccc23)cc1 (configuration not stated) | > 100 µM |
| COC1C=COC2(C)Oc3c(C)c(O)c4c(O)c(c(C5SCCS5)c(O)c4c3C2=O)NC(=O)C(C)=C/C=C\C(C)C2OC(C)(C)OC(C2C)C(C)C(OC(C)=O)C1C (configuration not stated) | 29.3 µM |
| OCc1ccc(C2CC(c3ccco3)=NN2c2ccccc2)o1 (configuration not stated) | > 100 µM |
| COc1ccc(C2COc3cc(O)c(O)cc3C2)cc1 (configuration not stated) | 127 µM |
| CCCCN=C(c1ccccc1)N1CCOCC1 | > 100 µM |
| CSc1ncnc2c1ncn2CCC#N | > 100 µM |
| CCOC(=O)c1ccc(C)c(N=NN(C)C)c1 | > 100 µM |
| CC1CCCC(CC(=O)O)(CC(=O)O)C1 (configuration not stated) | > 100 µM |
| COc1cc2c3c(c1OC)C1(C=CC(=O)C=C1)C[C@H]3N(C)CC2 | > 100 µM |
| CC(C)(Cl)C(Br)CCC(=CCCl)CBr (mixture of isomers) | 4.21 µM |
| O=NN(CCCl)C(=O)NC1CCC(O)CC1 (configuration not stated) | 43.3 µM |
| Nc1[nH]nc2nc3ccc(C(F)(F)F)cc3nc12 | > 100 µM |
| CCC(=O)ONC(=O)Cn1ccc([N+](=O)[O-])n1 | > 100 µM |
| O=C(CN(c1ccccc1)c1ccccc1)n1nnc2ccccc21 | > 100 µM |
| CSc1sc2ccccc2[s+]1 | > 100 µM |
| COc1cc(OC)c(C2c3cc4c(cc3OC(N3CCCC3)C2C)OCO4)c(OC)c1 (configuration not stated) | 40.3 µM |
| Cc1ccc(S(=O)(=O)C(C#N)c2nc3ccccc3nc2-n2ccnc2)cc1 (configuration not stated) | > 100 µM |
| C=C1CN2CC(=C)CN(C1)CS(=O)(=O)N1CC(=C)CN(CC(=C)C1)S(=O)(=O)N1CC(=C)CN(CC(=C)C1)S(=O)(=O)C2 | > 100 µM |
| C=C(Cl)C(C)(Cl)CCC(Br)C(C)(C)Cl (configuration not stated) | > 100 µM |
| Nc1ccc(S2(c3ccc(N)cc3)C=C(c3ccccc3)C(c3ccccc3)=C2)cc1 | > 100 µM |
| O=C1C(=Cc2ccccc2O)N=C(c2ccccc2)N1n1c(-c2ccccc2)nc2ccccc2c1=O | 88.3 µM |
| CC(=O)O[C@]12CCCCCC1C1(O)C(O)CCCC[C@H]12 (some centres not stated) | > 100 µM |
| COC(=O)C1=C(C)NC(C)=C(C(=O)OC)C1c1nc2sccn2c1[N+](=O)[O-] | > 100 µM |
| O=c1c(C(c2ccc(Cl)cc2)c2c(O)c3ccccc3n(-c3ccccc3)c2=O)c(O)c2ccccc2n1-c1ccccc1 | > 100 µM |
| CCNC(=O)Nc1cccc(NC(=O)NCC)n1 | > 100 µM |

system: MALME-3M melanoma; assay: NCI anticancer screen, dose series, 48 h

| Compound | TGI |
| --- | --- |
| COc1ccc(C2OC(c3ccncc3)=NN2C)cc1OC (configuration not stated) | > 100 µM |
| COc1c(C(C)C)cc2c3c1OC(=O)[C@@]31CCCC(C)(C)C1CC2 (some centres not stated) | 98.5 µM |
| COC1C=COC2(C)Oc3c(C)c(O)c4c(O)c(c(C5SCCS5)c(O)c4c3C2=O)NC(=O)C(C)=C/C=C\C(C)C2OC(C)(C)OC(C2C)C(C)C(OC(C)=O)C1C (configuration not stated) | 36.5 µM |
| OCc1ccc(C2CC(c3ccco3)=NN2c2ccccc2)o1 (configuration not stated) | > 100 µM |
| COc1ccc(C2COc3cc(O)c(O)cc3C2)cc1 (configuration not stated) | 59.3 µM |
| CCCCN=C(c1ccccc1)N1CCOCC1 | > 100 µM |
| CSc1ncnc2c1ncn2CCC#N | > 100 µM |
| CCOC(=O)c1ccc(C)c(N=NN(C)C)c1 | > 100 µM |
| CC1CCCC(CC(=O)O)(CC(=O)O)C1 (configuration not stated) | > 100 µM |
| COc1cc2c3c(c1OC)C1(C=CC(=O)C=C1)C[C@H]3N(C)CC2 | > 100 µM |
| CC(C)(Cl)C(Br)CCC(=CCCl)CBr (mixture of isomers) | 4.85 µM |
| O=NN(CCCl)C(=O)NC1CCC(O)CC1 (configuration not stated) | > 71.1 µM |
| Nc1[nH]nc2nc3ccc(C(F)(F)F)cc3nc12 | > 100 µM |
| CCC(=O)ONC(=O)Cn1ccc([N+](=O)[O-])n1 | > 100 µM |
| Cc1ccc(O)c(-c2cscn2)c1 | > 100 µM |
| O=C(CN(c1ccccc1)c1ccccc1)n1nnc2ccccc21 | > 100 µM |
| CSc1sc2ccccc2[s+]1 | > 100 µM |
| Cc1ccc(S(=O)(=O)C(C#N)c2nc3ccccc3nc2-n2ccnc2)cc1 (configuration not stated) | > 100 µM |
| C=C1CN2CC(=C)CN(C1)CS(=O)(=O)N1CC(=C)CN(CC(=C)C1)S(=O)(=O)N1CC(=C)CN(CC(=C)C1)S(=O)(=O)C2 | 86.4 µM |
| C=C(Cl)C(C)(Cl)CCC(Br)C(C)(C)Cl (configuration not stated) | 38.4 µM |
| COC(=O)C1CCCN1C(=O)C(Cc1cn(S(=O)(=O)c2ccc(C)cc2)cn1)NC(=O)OC(C)(C)C (configuration not stated) | > 100 µM |
| Nc1ccc(S2(c3ccc(N)cc3)C=C(c3ccccc3)C(c3ccccc3)=C2)cc1 | > 100 µM |
| O=C1C(=Cc2ccccc2O)N=C(c2ccccc2)N1n1c(-c2ccccc2)nc2ccccc2c1=O | > 100 µM |
| CC(=O)O[C@]12CCCCCC1C1(O)C(O)CCCC[C@H]12 (some centres not stated) | > 100 µM |
| O=c1c(C(c2ccc(Cl)cc2)c2c(O)c3ccccc3n(-c3ccccc3)c2=O)c(O)c2ccccc2n1-c1ccccc1 | 60.1 µM |
| CCNC(=O)Nc1cccc(NC(=O)NCC)n1 | > 100 µM |

system: MDA-MB-231 breast; assay: NCI anticancer screen, dose series, 48 h

| Compound | TGI |
| --- | --- |
| COc1ccc(C2OC(c3ccncc3)=NN2C)cc1OC (configuration not stated) | > 100 µM |
| COc1ccc(N2C(=O)CSC2c2c[nH]c3ccccc23)cc1 (configuration not stated) | > 100 µM |
| COC1C=COC2(C)Oc3c(C)c(O)c4c(O)c(c(C5SCCS5)c(O)c4c3C2=O)NC(=O)C(C)=C/C=C\C(C)C2OC(C)(C)OC(C2C)C(C)C(OC(C)=O)C1C (configuration not stated) | 45.7 µM |
| CCCCN=C(c1ccccc1)N1CCOCC1 | > 100 µM |

From PubChem BioAssay (NCI)
